Reference: ChEMBL document CHEMBL6127021, “Inhibition of protein tyrosine phosphatase 1B by serratane triterpenes from Huperzia serrata and their molecular docking study” (Bioorg Med Chem Lett, 2024)

Key:
[1] = target: T1, Tyrosine-protein phosphatase non-receptor type 1 (Homo sapiens, UniProt P18031); assay: Competitive inhibition of recombinant human PTP1B using p-NPP as substrate assessed as inhibition constant incubated for 30 mins by Lineweaver-Burk plot analysis
T1 sequence (P18031 whole entry): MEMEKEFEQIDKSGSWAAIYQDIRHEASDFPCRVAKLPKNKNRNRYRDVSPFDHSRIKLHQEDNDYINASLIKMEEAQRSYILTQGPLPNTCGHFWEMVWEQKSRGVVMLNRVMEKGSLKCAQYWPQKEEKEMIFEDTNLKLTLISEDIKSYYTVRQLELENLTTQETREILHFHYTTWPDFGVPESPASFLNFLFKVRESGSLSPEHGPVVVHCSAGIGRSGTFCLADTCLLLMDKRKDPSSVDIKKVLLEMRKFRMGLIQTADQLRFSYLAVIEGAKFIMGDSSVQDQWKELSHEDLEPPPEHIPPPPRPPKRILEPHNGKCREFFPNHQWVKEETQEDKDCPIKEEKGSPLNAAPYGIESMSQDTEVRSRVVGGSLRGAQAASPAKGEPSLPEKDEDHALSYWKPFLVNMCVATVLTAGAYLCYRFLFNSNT

[2] = target: T1, Tyrosine-protein phosphatase non-receptor type 1; assay: Inhibition of recombinant human PTP1B using p-NPP as substrate incubated for 30 mins by absorbance based microplate reader

Ki [1] [µM]	IC50 [2] [µM]	SMILES
12.2	7.28	CC1(C)[C@@H](O)CC[C@@]2(C)[C@H]1CC[C@@]1(C)CC3=CC[C@H]4C(C)(C)[C@@H](O)CC[C@]4(C)[C@H]3CC[C@@H]12
–	> 30	CC(=O)O[C@H]1CC[C@@]2(C)[C@@H](CC[C@@]3(C)CC4=CC[C@H]5C(C)(C)[C@@H](O)CC[C@]5(C)[C@H]4CC[C@@H]32)C1(C)C
11.9	4.65	CC1(C)[C@@H](O)CC[C@@]2(C)[C@H]1CC[C@@]1(C)CC3=CC[C@H]4C(C)(C)[C@H](O)CC[C@]4(C)[C@H]3CC[C@@H]12
–	> 30	CC(=O)O[C@H]1CC[C@@]2(C)[C@@H](CC[C@]3(O)C[C@]4(C)CC[C@H]5C(C)(C)[C@@H](O)CC[C@]5(C)[C@H]4CC[C@@H]32)C1(C)C
